US6235789A, “Benzocycloalkene compounds, their production and use” (Takeda Chemical Industries, Ltd., priority 1994, dated 2001)

Molecular target: melatonin receptor
Assay: Inhibition of 2-[^125 I]iodomelatonin binding in forebrain homogenate of 7-day-old chicken
Parameters: species or system chicken (white leghorn)
Conditions: 80 pM 2-[^125 I]iodomelatonin, 90 minutes at 25° C., 7-day-old chicken forebrain homogenate, log-probit analysis; read-out: IC50, action of inhibiting 2-[^125 I]iodomelatonin binding
Experimental: The farebrains of 7-day-old chicken (white leghorn) were homogenized with ice-cold assay buffer (50 mM Tris-HCl, pH 7.7 at 25° C.) and centrifuged at 44,000×g for 10 minutes at 4° C. The pellet was washed once with the same buffer and stored at -30° C. until use. For the assay, the frozen tissue pellet was thawed and homogenized with the assay buffer to make a protein concentration of 0.3-0.4 mg/ml. […] The reaction was terminated by adding 3 ml of ice-cold assay buffer immediately followed by vacuum filtration on Whatman GF/B which was further washed twice with 3 ml of ice-cold assay buffer. The radioactivity on the filter was determined by means of γ-counter.

| IC50 [nM] | Compound |
| --- | --- |
| 0.72 | COc1ccc2c(c1)/C(=C/CNC(=O)C(F)(F)F)CCC2 [compound 33] |
| 0.95 | CC(=O)NCCC1CCCc2ccc(O)cc21 (stereo not drawn) [compound 35] |
| 0.7 | COc1ccc2c(c1)[C@H](CCNC(C)=O)CC2 [compound 66] |
